# Results as given in patent publication US9359341B2, “Aldehyde derivative of substitute oxazolidinones” (WANBURY LTD., priority 2012, dated 2016).
# Like-named read-outs stand apart in the source and are kept apart here.
# Experiments:
# [1] = In vitro liver microsomal stability assay (rat); type: in vitro ADME; details: rat liver microsomes
# Description: (§1) Liver microsomal stability assays are conducted at 1 mg per mL liver microsome protein with an NADPH in phosphate buffer (100 mM, pH 7.4). Test compounds (compound of formula B of the invention) are prepared as solutions in 20% methanol-water and added to the assay mixture (final assay concentration 1 μM) and incubated at 37° C. Aliquots (100.μ·L) are taken out at times 0, 15, and 30 minutes, and diluted with ice cold acetonitrile containing IS (200.mu·L) to stop the reactions. Samples are centrifuged at 10,000 RPM for 5 minutes to precipitate proteins. Supernatants are transferred to micro centrifuge tubes and stored at −20° C. for analysis of LC/MS/MS. The percent parent remaining of the test substance is calculated as Ratio of peak area at each time point to peak area ratio at zero min, multiplied by 100. The compound formula (B) is converted to Rivaroxaban in microsomal assay.
# [2] = In vitro stability in mouse plasma; type: in vitro ADME; details: conversion to rivaroxaban seen from zero min
# Description: (§2) The final concentration of the test compound in the assay is 5 micromolar. […] C. The 100 microliters of aliquot at time point was removed and diluted with ice cold acetonitrile containing IS (200.mu·L) to stop the reactions. Samples are centrifuged at 10,000 RPM for 5 minutes to precipitate proteins. Supernatants are transferred to micro centrifuge tubes and stored at −20° C. for analysis of LC/MS/MS. The percent parent remaining of the test substance is calculated as ratio of peak area at each time point to peak area ratio at zero min, multiplied by 100.
# (§3) API 4000, ESI Agilent 1100 column: Gemini Nx 100 mm×4.6 mm 5.1; column temperature: 30° C.; eluent A: 0.1% formic acid in water, eluent B: acetonitrile; gradient: 0-2.5 min 95% A, 5% B; 2.5-2.6 min 5% A, 95% B; 2.6-4.2 min 95% A, 5% B; flow rate: 0.8 ml/min; ESI. Q1:464.098, Q3:144.255
# [3] = test system: caco2 system; assay: Permeability in caco2 system; type: in vitro ADME; details: caco2 system
# [4] = Permeability in caco2 system; type: in vitro ADME; details: human, Caco-2, caco2 system
# [5] = test system: CYP1A2, CYP2C9, CYP2D6, CYP2C19, CYP2J2 and CYP3A4; assay: CYP inhibition assay, all isoforms (overall interpretation); type: in vitro ADME, human; details: human, pooled human liver microsomes, pH 7.4; all assayed isoforms; minimal inhibition; read-out: inhibition of the CYP isoforms that were assayed
# Description: (§4) The ability of substances to inhibit CYP1A2, CYP2C9, CYP2D6, CYP2C19, CYP2J2 and CYP3A4 in humans was investigated with pooled human liver microsomes as enzyme source in the presence of standard substrates (see below) which form CYP-isoform-specific metabolites.
# (§5) Standard incubation mixtures comprise NADPH and substrates in 100 mM phosphate buffer (pH 7.4) in a total volume of 200 μl. Test compound are dissolved in acetonitrile. Incubated with pooled human liver microsomes at 37° C. for a defined time. The reactions are stopped by adding 100 μl of acetonitrile in which a suitable internal standard is always present. Precipitated proteins are removed by centrifugation, and the supernatants analyzed by LC-MS/MS. The data represents the extrapolated IC50 (μM) concentration derived from 3 μM.
# (§6) This is an essential parameter to gauge drug-drug interactions.
# [6] = test system: CYP isoforms; assay: as above; type: in vitro ADME, human; details: with other drug when administered
# Description: as §4, §5, §6
# [7] = In vitro liver microsomal stability assay (human); type: in vitro ADME; details: human liver microsomes
# Description: as §1
# [8] = molecular target: CYP1A2 (Homo sapiens (Human), UniProt P05177); assay: CYP inhibition assay; type: in vitro ADME; details: pooled human liver microsomes; extrapolated IC50 derived from 3 μM; read-out: IC50 (μM) of CYP isoforms, 1A2
# Sequence of CYP1A2 (P05177 whole entry, canonical isoform): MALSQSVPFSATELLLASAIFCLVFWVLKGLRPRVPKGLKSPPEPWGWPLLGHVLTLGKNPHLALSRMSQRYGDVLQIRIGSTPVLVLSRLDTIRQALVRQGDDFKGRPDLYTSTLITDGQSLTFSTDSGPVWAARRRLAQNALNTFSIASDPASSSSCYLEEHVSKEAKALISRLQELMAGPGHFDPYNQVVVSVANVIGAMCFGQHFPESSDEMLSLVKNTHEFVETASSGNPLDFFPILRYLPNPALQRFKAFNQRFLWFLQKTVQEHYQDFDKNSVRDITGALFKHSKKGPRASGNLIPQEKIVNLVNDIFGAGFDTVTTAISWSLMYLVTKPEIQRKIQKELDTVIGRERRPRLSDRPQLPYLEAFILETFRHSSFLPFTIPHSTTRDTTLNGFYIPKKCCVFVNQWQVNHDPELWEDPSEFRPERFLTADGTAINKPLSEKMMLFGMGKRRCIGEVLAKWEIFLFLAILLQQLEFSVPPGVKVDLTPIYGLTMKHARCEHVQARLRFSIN
# Description: as §4
# as §5, with “LC-MS/MS.” for “LC-MS/MS. The data represents the extrapolated IC50 (μM) concentration derived from 3 μM.”
# [9] = molecular target: CYP3A4 (Homo sapiens (Human), UniProt P08684); assay: CYP inhibition assay; type: in vitro ADME; details: pooled human liver microsomes; extrapolated IC50 derived from 3 μM; read-out: IC50 (μM) of CYP isoforms, 3A4
# Sequence of CYP3A4 (P08684 whole entry, canonical isoform): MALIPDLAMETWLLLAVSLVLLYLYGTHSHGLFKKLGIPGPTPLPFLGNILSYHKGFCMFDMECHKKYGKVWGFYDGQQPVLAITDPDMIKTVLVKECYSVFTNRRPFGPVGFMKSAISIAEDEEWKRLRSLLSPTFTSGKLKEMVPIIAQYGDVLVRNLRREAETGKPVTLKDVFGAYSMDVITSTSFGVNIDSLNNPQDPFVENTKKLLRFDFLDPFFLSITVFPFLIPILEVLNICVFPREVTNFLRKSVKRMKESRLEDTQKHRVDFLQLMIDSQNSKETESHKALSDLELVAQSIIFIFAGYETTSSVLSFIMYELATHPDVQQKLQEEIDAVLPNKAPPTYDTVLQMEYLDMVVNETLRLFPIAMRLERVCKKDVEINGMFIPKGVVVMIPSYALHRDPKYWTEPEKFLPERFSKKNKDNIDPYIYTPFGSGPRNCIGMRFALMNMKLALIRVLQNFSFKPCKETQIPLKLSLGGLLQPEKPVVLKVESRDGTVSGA
# Description: as §4
# as §5, with “LC-MS/MS.” for “LC-MS/MS. The data represents the extrapolated IC50 (μM) concentration derived from 3 μM.”
# [10] = In vitro stability in rat plasma; type: in vitro ADME; details: conversion to rivaroxaban seen from zero min
# Description: as §2, §3
# [11] = Stability in simulating intestinal fluid (SIF); type: physicochemical; details: over 120 min
# Description: On completion of incubation period, the solution is centrifuged and supernatant is taken. To the supernatant, ice cold acetonitrile containing IS is added, vortexed and injected into LCMS/MS.
# API 4000, ESI Agilent 1100 column: Gemini Nx 100 mm×4.6 mm 5.μ; column temperature: 30° C.; eluent A: 0.1% formic acid in water, eluent B: acetonitrile; gradient: 0-2.5 min 95% A, 5% B; 2.5-2.6 min 5% A, 95% B; 2.6-4.2 min 95% A, 5% B; flow rate: 0.8 ml/min; ESI. Q1:464.098, Q3:144.255
# Prepared 0.1 mol of citric acid and 0.2 mol of di sodium hydrogen phosphate in water. Buffer pH 2.2, 4 and 7.8 are prepared using citric acid and disodium hydrogen phosphate by adjusting the pH with 0.1N HCl or 1N NaOHpH 7.4: 8.89 g disodium hydrogen phosphate (Solution A) add to 1 liter of water, 1.5601 g sodium di-hydrogen phosphate (solution B) are made up to 1 liter with water; Solution A (19 ml) and Solution B (81 ml) are mixed. SIF/SGF: 2.38 g of SIF original powder (biorelavant media) is dissolved in 1 L of milliQ water. The pH of the solution is adjusted for SIF (7.4) and SGF (2.2) with 0.1N HCl. The ratios of the peak areas (F) at the respective time points in relation to the peak areas at the starting time are calculated
# The peak area (F) is directly correlated to the amount of test compound which is quantified by the LC MS method. […]
# [12] = metabolised to rivaroxaban from zero min
compound,measurement,setting,value
"O=CN(C[C@H]1CN(c2ccc(N3CCOCC3=O)cc2)C(=O)O1)C(=O)c1ccc(Cl)s1 [Compound formula B, 5-chloro-N-formyl-N-({(5S)-2-oxo-3-[4-(3-oxomorpholin-4-yl)phenyl]-1,3-oxazolidin-5-yl}methyl)thiophene-2-carboxamide]",Observation (metabolism; for Test Product: of the formed rivaroxaban),[1],shown metabolism
same,amount of test product detected,[1]; [12],min. Neglible
same,Conversion: amount of test product detected,[2],min. Neglible
same,Interpretation: Pgp substrate (efflux of >2),[3],observed to be a Pgp substrate.
same,Papp,"[4]; read-out: Interpretation: permeability, classification based on Papp",> 20 ×10⁻⁶ cm/s
same,Papp,[4]; read-out: Papp A > B,17.4 ×10⁻⁶ cm/s
same,Papp,[4]; read-out: Papp B > A,40.3 ×10⁻⁶ cm/s
same,IC50,[5],> 1000 nM
same,Interpretation of CYP inhibition studies,[6],Low drug-drug interaction (compound formula-B
same,Observation (metabolism; for Test Product: of the formed rivaroxaban),[7],stable in human
same,amount of test product detected,[7]; [12],Neglible amount
same,IC50,[8],1.4 µM
same,IC50,[9],5.7 µM
same,Conversion: amount of test product detected,[10],min. Neglible
same,stability at simulating intestinal conditions,[11],stable at simulating intestinal conditions
